Experimental data reported in PubChem BioAssay (NCI).
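How tested: cells in 96-well plates exposed to compound for 48 hours at five concentrations. At the TGI there is no net growth.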

How the values were obtained:
Test in all cases: NCI tumour cell line growth inhibition, 48 h
[1] = system: HOP-62 NSCLC
[2] = system: DMS 273 small cell lung
[3] = system: HCC-2998 colon
[4] = system: NCI-H226 lung
[5] = system: LOX IMVI melanoma
[6] = system: CAKI-1 renal
[7] = system: NCI-H522 lung
[8] = system: KM20L2 colon
[9] = system: KM12 colon
[10] = system: CCRF-CEM leukemia
[11] = system: 786-0 renal
[12] = system: U251 CNS
[13] = system: LXFL 529 NSCLC
[14] = system: MALME-3M melanoma
[15] = system: SK-MEL-2 melanoma
[16] = system: UO-31 renal
[17] = system: SF-539 CNS
[18] = system: SK-MEL-28 melanoma
[19] = system: HCT-116 colon
[20] = system: MOLT-4 leukemia
[21] = system: HT29 colon
[22] = system: K-562 leukemia
[23] = system: SNB-78 CNS
[24] = system: IGROV1 ovarian
[25] = system: UACC-62 melanoma
[26] = system: OVCAR-3 ovarian
[27] = system: ACHN renal
[28] = system: DLD-1 colon
[29] = system: RXF-631 renal
[30] = system: COLO 205 colon
[31] = system: SF-295 CNS
[32] = system: SK-MEL-5 melanoma
[33] = system: A549 NSCLC
[34] = system: SNB-75 CNS
[35] = system: NCI-H23 lung
[36] = system: SNB-19 CNS
[37] = system: HOP-18 NSCLC
[38] = system: SF-268 CNS
[39] = system: M19-MEL melanoma
[40] = system: TK-10 renal
[41] = system: EKVX NSCLC
[42] = system: SN12C renal
[43] = system: M14 melanoma
[44] = system: RXF 393 renal
[45] = system: HL-60(TB) leukemia
[46] = system: OVCAR-4 ovarian
[47] = system: UACC-257 melanoma
[48] = system: OVCAR-8 ovarian
[49] = system: OVCAR-5 ovarian
[50] = system: SR leukemia
[51] = system: SW-620 colon
[52] = system: SK-OV-3 ovarian
[53] = system: DMS 114 small cell lung
[54] = system: XF 498 CNS
[55] = system: HCT-15 colon
[56] = system: NCI-H460 lung
[57] = system: RPMI-8226 leukemia
[58] = system: A498 renal
[59] = system: HOP-92 NSCLC

In the case of `Cc1c(NC(=O)/C(=N/NC(=S)N=N)C2C(=O)CC(C)(C)CC2=O)c(O)c2ccccc2c1O`, the TGI [1] is reported as 36 µM, the TGI [2] is reported as 22.4 µM and the TGI [3] is reported as 23.3 µM. The TGI [4] was 27.7 µM, the TGI [5] was 12 µM and the TGI [6] was 37.6 µM. For the same compound, the TGI [7] was 8.39 µM, the TGI [8] was 40.4 µM and the TGI [9] was 22.1 µM. The TGI [10] was 21.1 µM, the TGI [11] was 27.2 µM and the TGI [12] was 14 µM. For the same compound, the TGI [13] was 23.7 µM, the TGI [14] was 29.6 µM and the TGI [15] was 26.1 µM. For the same compound, the TGI [16] was 25.4 µM, the TGI [17] was 12.4 µM and the TGI [18] was 26.4 µM. It also gave a TGI [19] of 13.7 µM, a TGI [20] of 15.7 µM and a TGI [21] of 33.6 µM. It also gave a TGI [22] of 62.8 µM, a TGI [23] of 58.8 µM and a TGI [24] of 19.8 µM. For the same compound, the TGI [25] was 6 µM, the TGI [26] was 6.5 µM and the TGI [27] was 26.8 µM. The TGI [28] was 20.7 µM, the TGI [29] was 31.7 µM and the TGI [30] was 25.5 µM. It also gave a TGI [31] of 27.6 µM, a TGI [32] of 11.3 µM and a TGI [33] of 21.7 µM. The TGI [34] was 45.6 µM, the TGI [35] was 11.9 µM and the TGI [36] was 26.5 µM. The TGI [37] was 30.4 µM, the TGI [38] was 21.7 µM and the TGI [39] was 2.95 µM. The TGI [40] was 35.6 µM, the TGI [41] was 32.2 µM and the TGI [42] was 20.1 µM. For the same compound, the TGI [43] was 18.5 µM, the TGI [44] was 33.2 µM and the TGI [45] was 22.7 µM. For the same compound, the TGI [46] was 27 µM, the TGI [47] was 14 µM and the TGI [48] was 17.6 µM. For the same compound, the TGI [49] was 36.9 µM, the TGI [50] was 14.9 µM and the TGI [51] was 22.3 µM. The TGI [52] was 36.9 µM, the TGI [53] was 4.17 µM and the TGI [54] was 28.9 µM. The TGI [55] was 18.8 µM, the TGI [56] was 64.9 µM and the TGI [57] was 56.7 µM. The TGI [58] was 35.7 µM.
For `COC(=O)CCC1=NOC(CC2CC(CCC(=O)OC)=NO2)C1` (centres undefined), the TGI [1] was greater than 100 µM, the TGI [2] was greater than 100 µM and the TGI [3] was greater than 100 µM. The TGI [4] was greater than 100 µM, the TGI [5] was greater than 100 µM and the TGI [6] was greater than 100 µM. It also gave a TGI [7] greater than 100 µM, a TGI [8] greater than 100 µM and a TGI [9] greater than 100 µM. It also gave a TGI [10] greater than 100 µM, a TGI [11] greater than 100 µM and a TGI [12] greater than 100 µM. The TGI [13] was greater than 100 µM, the TGI [14] was greater than 100 µM and the TGI [15] was greater than 100 µM. The TGI [16] was greater than 100 µM, the TGI [17] was greater than 100 µM and the TGI [19] was greater than 100 µM. The TGI [20] was greater than 100 µM, the TGI [21] was greater than 100 µM and the TGI [22] was greater than 100 µM. The TGI [23] was greater than 100 µM, the TGI [24] was greater than 100 µM and the TGI [25] was greater than 100 µM. For the same compound, the TGI [26] was greater than 100 µM, the TGI [28] was greater than 100 µM and the TGI [29] was greater than 100 µM. For the same compound, the TGI [30] was greater than 100 µM, the TGI [31] was greater than 100 µM and the TGI [32] was greater than 100 µM. The TGI [59] was greater than 100 µM, the TGI [33] was greater than 100 µM and the TGI [34] was greater than 100 µM. It also gave a TGI [35] greater than 100 µM, a TGI [36] greater than 100 µM and a TGI [37] greater than 100 µM. The TGI [38] was greater than 100 µM, the TGI [39] was greater than 100 µM and the TGI [40] was greater than 100 µM. It also gave a TGI [41] greater than 100 µM, a TGI [42] greater than 100 µM and a TGI [43] greater than 100 µM. It also gave a TGI [44] greater than 100 µM, a TGI [45] greater than 100 µM and a TGI [46] greater than 100 µM. It also gave a TGI [47] greater than 100 µM, a TGI [48] greater than 100 µM and a TGI [49] greater than 100 µM. It also gave a TGI [51] greater than 100 µM, a TGI [52] greater than 100 µM and a TGI [53] greater than 100 µM. It also gave a TGI [54] greater than 100 µM, a TGI [55] greater than 100 µM and a TGI [56] greater than 100 µM. The TGI [57] was greater than 100 µM and the TGI [58] was greater than 100 µM.
